Measured values as given in patent publication US9133154B2, “Substituted 3-phenylpropylamine derivatives for the treatment of ophthalmic diseases and disorders” (Acucela Inc., priority 2013, dated 2015).
Several values for one entry are separate records, joined by “and”; a condition that tells them apart may be missing. Equal entries are not always repeated. Entries after “also recorded” stand apart in the source; their conditions may differ.

Legend:
[1] = system: retinal isomerase activity (recovery of 11-cis-retinal); test: Comparative in vivo murine isomerase assay, dose response; set-up: species or system BALB/c mice; conditions: for Avg. % Inhibition: 11-cis-retinal, drug vs. recovery control, listed as cmpd A
Protocol: All test compounds were stored at room temperature, dessicated.
On the day prior to dose administration compound A and compound D were weighed into new empty glass vials. The compounds were dissolved in di-water at the concentration of 0.833 mg/mL compound A and 0.892 mg/mL compound D, serially diluted into various concentrations, and stored overnight at 4° C.
56 Male BALB/c mice (Charles River Laboratories) were used for this study. The mice were approximately 8 weeks at the initiation of dosing with an average body weight of 24 grams.
The day prior to dose administration 56 BALB/c mice were placed into a dark room and dark adapted for a minimum of 12 hours prior to dose administration. The mice were maintained in the dark for the duration of the study.
Each animal was removed from its cage and dosed accordingly to the study design in Table 4 (see below). Each animal was administered 0.1 mL of the appropriate compound or vehicle via oral gavage using a 1 mL syringe fitted with a 23 gauge oral gavage needle. Two hours following dose administration, animals were removed from the dark and exposed to 5000 Lux white light for 10 minutes to photobleach their eyes. Following the completion of the photobleach the animals were returned to the dark for 2 hours to allow for the regeneration of 11-cis-retinal in the eyes. Two hours after photobleaching each animal was euthanized with carbon dioxide followed by cervical dislocation, in the dark under red light. The light control group was euthanized immediately following photobleaching. Immediately following the cervical dislocation both eyes of each animal were removed and transferred into separate tubes, flash frozen in liquid nitrogen and stored in the dark at −80° C. until processing and analysis.
(§1) All sample processing procedures were performed in the dark under red light.
Extracted samples were analyzed using an Agilent 1100 HPLC system according to the procedure outlined in Table 6 (see below)
HPLC analysis of the eyes measures the peak area units of the 110cis-Ral-Oxime_syn. Signal.
Data analysis % inhibition (drug vs. recovery control). % control (drug vs. light control), and One-way ANOVA (followed by Tukey's Multiple Comparison) were performed using peak area units and performed by Prism software. Data are represented as mean and standard deviation.

[2] = system: accumulation of A2E in the eyes; test: A2E accumulation model; format: in vivo, abca4−/−, RPE65 Leu450Leu mice; conditions: for Day 91 A2E Concentration, individual animals: 91 days, left eye, animals 1-8, listed as Test cmpd
Protocol: The purpose of this study was to assess the ability of test compounds to inhibit the accumulation of A2E in the eyes of abca4^−/−, RPE65 Leu450Leu mice (ABCR) following 91 days of continuous dosing.
The test compound (R)-3-amino-1-(3-((tetrahydro-2H-pyran-4-yl)methoxy)phenyl)-propan-1-ol (Example 1) was stored in a freezer set to maintain at approximately −20° C.
On the day prior to dosing and once weekly for 13 weeks the test articles were weighed into new empty glass scintillation vials. The compound was dissolved in ethanol (10% of final volume) and then diluted with deionized water (90% of total final volume) resulting in a concentrations of 0.2 mg/mL. This dosing solution was administered to the high dose groups (1 mg/kg). For the low dose groups (0.1 mg/kg) a […] dosing solution was prepared by diluting with vehicle (10% ethanol 90% water) to the appropriate concentration. The dosing solutions were stored in a refrigerator set to maintain between 2 to 8° C. and used for dose administration once per day for one week. The vehicle used for dosing control groups was 10% ethanol 90% deionized water.
Male and female abca4^−/−, and RPE65 Leu450Leu, mice (Charles River Laboratories) were used for this study. The mice were approximately 8-12 week old at the initiation of dosing with a starting average body weight of 19 grams for females and 27 grams for males.
Group 1 animals (Time zero for A2E accumulation) were euthanized with carbon dioxide followed by cervical dislocation on the first day of dosing. Immediately following the cervical dislocation both eyes of the animal was removed and transferred into separate tubes, flash frozen in liquid nitrogen and stored in the dark at −80° C. until processing and analysis.
The remaining groups (2-4) were dosed once each day for 13 weeks. When dosed each animal was administered a 5 mL/kg dose of the appropriate test compound or vehicle via oral gavage using a 1 mL syringe fitted with a 20 gauge oral gavage needle. Upon the completion of the study, animals were euthanized with carbon dioxide followed by cervical dislocation. Immediately following the cervical dislocation both eyes of the animal was removed and transferred into separate tubes, flash frozen in liquid nitrogen and stored in the dark at −80° C. until processing and analysis for A2E concentration.
as §1
Extracted samples were analyzed using an Agilent 1100 HPLC system according to the procedure outlined in Table 21 (See Below)
HPLC analysis of the eyes looks at the peak area units of the A2E present in the eyes following extraction as described above.
Data analysis % inhibition (drug vs. recovery control), % control (drug vs. light control), and One-way ANOVA (followed by Tukey's Multiple Comparison) were performed using peak area units and performed by Prism software. Data are represented as mean and standard deviation.

[3] = system: isomerase (recovery of 11-cis-retinal after bleaching); test: In vivo murine isomerase assay; conditions: mice, oral gavage
Protocol: The capability of compounds described herein to inhibit isomerase was determined by an in vivo murine isomerase assay. […] The recovery of 11-cis-retinal after bleaching can be used to estimate the activity of isomerase in vivo. Delayed recovery, as represented by lower 11-cis-retinal oxime levels, indicates inhibition of isomerization reaction.
Mice were gavaged with the test compound. […] The mice were allowed to recover 2 hours in the dark. The animals were then sacrificed by carbon dioxide inhalation. Retinoids were extracted from the eye and the regeneration of 11-cis-retinal was assessed at various time intervals.
After the mice were sacrificed, the eyes were immediately removed and placed in liquid nitrogen for storage.
The eyes were placed in 500 μL of bis-tris propane buffer (10 mM, pH˜7.3) and 20 μL of 0.8M hydroxile amine (pH˜7.3). The eyes were cut up into small pieces with small iris scissors and then thoroughly homogenized at 30000 rpm with a mechanical homogenizer (Polytron PT 1300 D) in the tube until no visible tissue remained. 500 μL of methanol and 500 μL of heptane were added to each tube. The tubes were attached to a vortexer so that the contents were mixed thoroughly for 15 minutes in room temperature. The organic phase was separated from the aqueous phase by centrifugation for 10 min at 13K rpm, 4° C. 240 μL of the solution from the top layer (organic phase) was removed and transferred to clean 300 μl glass inserts in HPLC vials using glass pipette and the vials were crimped shut tightly.
The samples were analyzed on an Agilent 1100 HPLC system with normal phase column: SILICA (Beckman Coutlier, dp 5 μm, 4.6 mM×250 mM). […] Loading volume for each sample was 100 μA detection wavelength was 360 nm. The area under the curve for 11-cis retinal oxime was calculated by Agilent Chemstation software and was recorded manually. Data processing was performed using Prizm software.
Positive control mice (no compound administered) were sacrificed fully dark-adapted and the eye retinoids analyzed. Light (bleached) control mice (no compound administered) were sacrificed and retinoids isolated and analyzed immediately after light treatment.
A time course study was performed to determine the isomerase inhibitory activity of the test compound. […] The animals were then “photo-bleached” (5000 Lux white light for 10 minutes) at 2, 4, 8, 16 and 24 hours after dosing, and returned to darkness to allow recovery of the 11-cis-retinal content of the eyes. Mice were sacrificed 2 hours after bleaching, eyes were enucleated, and retinoid content is analyzed by HPLC.
Recovery control mice (vehicle-only treated) were light-treated and left to recover for 2 hours in the dark before sacrifice and analysis. Light control mice (vehicle only treated) were sacrificed for analysis immediately after photo-bleaching.
An in vivo dose response isomerase inhibition study was performed with test compound. […] Recovery and retinoid analysis were performed as described above. Dark control mice were vehicle-only treated, sacrificed fully dark adapted without light treatment, and analyzed. Recovery control mice and light control mice were included in the study as per the initial phase.

[4] = BALB/c mice, single oral dose, 2 hours

Q: With `NCC[C@@H](O)c1cccc(OCC2CCOCC2)c1` [Example 1] as the compound, how does the “Avg. % Inhibition” value ([1]; BALB/c mice, oral 0.3 mg/kg, 2 hours, 0.3 mg/kg) read?
A: The value was 92.4%.

Q: And the “Avg. % Inhibition” value ([1]; BALB/c mice, oral 0.5 mg/kg, 2 hours, 0.5 mg/kg)?
A: The value was 99.3%.

Q: What about the “significance of inhibitory effect on the recovery of 11-cis-retinal vs. recovery control” value ([1]; BALB/c mice, single oral dose 0.03-3 mg/kg, 2 hours, listed as compound A) of the same compound?
A: Its value is “statistically significant difference, P<0.001 for 0.3, 0.5, 1 and 3 mg/kg dose levels; also recorded: significant inhibitory effect at 0.3 mg/kg, 0.5 mg/kg, 1 mg/kg and 3 mg/kg dose levels”.

Q: And the “IC50 (dose response experiment)” value [1, 4]?
A: Its value is 0.17 mg/kg.

Q: What about the “dose at which 11-cis-retinal recovery was inhibited by 50%” value [1, 4] of the same compound?
A: The value was 0.17 mg/kg.

Q: What about the “times more active than compound D” value ([1]; by IC50 of the dose response experiment) of the same compound?
A: The value was 3-4 ×.

Q: What about the “times more active than compound D” value ([1]; by dose showing nearly 100% inhibition (0.5 vs 3.0 mg/kg)) of the same compound?
A: Its value is “approximately 6 ×”.

Q: And the “times more active than compound D” value ([1]; by inhibition at a dose of 0.3 mg/kg)?
A: Its value is “greater than 10 ×”.

Q: What about the “Day 91 A2E Concentration, individual animals” value ([2]; 0.1 mg/kg oral once daily) of the same compound?
A: Its value is 9.64 Pico Moles/eye and 8.97 Pico Moles/eye and 10.23 Pico Moles/eye and 8.42 Pico Moles/eye and 8.49 Pico Moles/eye and 9.6 Pico Moles/eye and 11.68 Pico Moles/eye and 10.27 Pico Moles/eye.

Q: What about the “Day 91 A2E Concentration, individual animals” value ([2]; 1.0 mg/kg oral once daily) of the same compound?
A: Its value is 6.49 Pico Moles/eye and 7.68 Pico Moles/eye and 7.75 Pico Moles/eye and 8.87 Pico Moles/eye and 7.56 Pico Moles/eye and 8.01 Pico Moles/eye and 8.86 Pico Moles/eye and 9.49 Pico Moles/eye.

Q: And the “effect on the accumulation of A2E” value ([2]; 91 days of oral dosing at 0.1 mg/kg and 1.0 mg/kg)?
A: Its value is “statistically significant inhibitory effects on the accumulation of A2E”.

Q: And the inhibition at 0.1 mg/kg ([2]; Mus musculus, 2184 h, 0.1 mg/kg daily oral administration for 91 days)?
A: Its inhibition at 0.1 mg/kg is 46.4%.

Q: And the inhibition at 1 mg/kg ([2]; Mus musculus, 2184 h, 1 mg/kg daily oral administration for 91 days)?
A: Its inhibition at 1 mg/kg is 65%.

Q: What about the “% Inhibition” value ([3]; dose 0.3 mg/kg, time 2 h) of the same compound?
A: The value was 40.2%.

Q: And the “% Inhibition” value ([3]; dose 1 mg/kg, time 2 h)?
A: The value was 96.7%.

Q: What about the “% Inhibition” value ([3]; dose 1 mg/kg, time 4 h) of the same compound?
A: The value was 92.8%.
